In publication PMC12751015, “Evaluation of Bifunctional, PSMA-Targeted Triazamacrocycle-Picolinates Compatible with the ^18F/^44Sc/^177Lu Isotope Triad” (Journal of Medicinal Chemistry, 2025):

Legend:
PSMA + tumor = settings: 2 h p.i., clinically employed agents; ref not printed (Table S11); cited from earlier work
[1] = pH-dependent speciation of ScF complexes by 1H and 45Sc NMR (HypNMR2008 fit); format: physicochemical; settings: Sc3+ complexes, determined by HypNMR2008
From the text: To establish optimal parameters for the formation of ScF ternary complexes, we determined the pH-dependent speciation of ScF complexes with H 3 mpatcn and H 2 mpatcn-am-Bz using ^1H and ^45Sc NMR spectroscopy in accordance with previous methods established for the formation of lanthanide-fluoride complexes (Supporting Information, Section S3). […] Above pH 10, the [Sc(L)-OH] species becomes most favorable, effectively outcompeting the F^– ligand at increasing concentration. Low pH conditions led to the presence of protonated species [Sc(mpatcn)-H]^+, which competes with inner sphere fluorination. […] For both ligands, no statistically significant differences for pH dependence were observed, with the % of [ScF(L)] species remaining constant between pH 3 and 8 (Table ).

Row | SMILES | tumor to blood ratio (PSMA + tumor) | logßML [1] | logßMLF [1] | logßMLH [1] | logßMLOH [1]
1 | O=C(O)CC[C@H](NC(=O)N[C@@H](CCCCNC(=O)c1ccc(F)nc1)C(=O)O)C(=O)O [Pylarify] | 1220 ± 431 |  |  |  | 
2 | O=C(O)CN1CCN(CC(=O)O)CCN(Cc2cccc(C(=O)O)n2)CC1 [mpatcn] |  | 23 | 27.7 | 24.9 | 14.2
3 | CN(Cc1ccccc1)C(=O)CN1CCN(CC(=O)O)CCN(Cc2cccc(C(=O)O)n2)CC1 [mpatcn-am-Bz] |  | 23.2 | 27.8 |  | 13.7
